Article PMC8950706, “Influence of Substitutions in the Binding Motif of Proline-Rich Antimicrobial Peptide ARV-1502 on 70S Ribosome Binding and Antimicrobial Activity” (International Journal of Molecular Sciences, 2022)
Converted amounts (≈) assume the structure as drawn. Square brackets hold non-standard residues; d marks the D form. Ends that are not written are not given here. Peptide text beside a SMILES is read from it. Ac6c = NC1(C(=O)O)CCCCC1

Key:
[1] = system: E. coli BW25113; assay: MIC, liquid broth micro dilution, wild type; format: cell-based, Escherichia coli; details: for MIC (µg/mL), Table 3: BW25113, 4 h; for Minimal Inhibitory Concentration, 25% MHB2, wt / Minimal Inhibitory Concentration, 33% TSB, wt: BW25113, 20 h
Protocol: (§1) MIC values were determined using a liquid broth micro dilution assay in sterile 96-well plates (polystyrene F-bottom, Greiner Bio-One GmbH) and a total volume of 100 μL per well. Aqueous peptide solutions (10 g/L) were serially twofold diluted in 25% Mueller-Hinton broth 2 (25% MBH2) or 33% tryptic soy broth (33% TSB) starting at a peptide concentration of 128 mg/L (50 μL/well). Overnight cultures of bacteria grown in 25% MHB2 (or 33% TSB) were diluted 30-fold in 25% MHB2 (or 33% TSB). After an incubation period of 4 h (37 °C, 200 rpm), cells were diluted to 1.5 × 10^7 cfu/mL, based on a McFarland test, and 50 μL were added to each well (final concentration of 7.5 × 10^6 […]). The plates were incubated (37 °C, 20 h) and the optical density was recorded at 595 nm using a microplate reader ([…]^TM, Beckmann Coulter). The MIC was defined as the lowest peptide concentration preventing visible bacterial growth.

[2] = system: E. coli 70S ribosome; assay: Competitive FP binding screening assay with Cf-ARV-1502 (relative FP); parameters: species or system E. coli BW25113; details: for Ribosome Binding (%): competitive ribosome binding against Cf-ARV-1502 (relative FP; values match 1.2 µmol/L peptide), low value = strong competition
Protocol: E. coli 70S ribosomes were prepared using a previously described protocol that was slightly modified. Briefly, E. coli BW25113 was cultivated in Luria-Bertani (LB) medium and cells were harvested after reaching an optical density of ~4 at 600 nm by centrifugation (5000× g, 15 min, 4 °C, Rotor JLA 8.100, Avanti J-20 XP, Beckmann Coulter, Krefeld, Germany). The cell pellets were frozen and stored at −80 °C. Cells were resuspended in ribosome buffer (2 mL/g cells; 20 mmol/L HEPES-KOH, 6 mmol/L MgCl2, 30 mmol/L NH4Cl, 4 mmol/L 2-mercaptoethanol, pH 7.6). Lysozyme (0.25 g/L cell suspension) was added, and the mixture was incubated on ice for 30 min. Cells were disrupted using the bead mill homogenizer FastPrep-24™ 5G (40 s, 4 m/s, 6 cycles, MP Biomedicals Germany GmbH, Eschwege, Germany) and zirconia/silica beads (0.1 mm diameter). The lysate was centrifuged (1500× g, 5 min, 4 °C, Rotor S4180, Allegra 21R, Beckmann Coulter) and the supernatant was incubated with DNase (5 U/mL) on ice for 60 min. The cell debris was removed by two centrifugation steps (16,000× g, 30 min, 4 °C followed by 32,000× g, 60 min, 4 °C, Rotor JA 30.50 Ti, Avanti J-30I, Beckmann Coulter). The ribosome was pelleted by ultracentrifugation (165,000× g, 17 h, 4 °C, Rotor 70 Ti, Optima LE-80K, Beckmann Coulter), resuspended in ribosome buffer (0.1 mL/g pellet), and stored at −80 °C. The ribosome concentration was determined by recording the absorbance of RNA at 260 nm (NanoPhotometer NP80, Implen GmbH, München, Germany) assuming that 1 AU corresponds to a ribosome concentration of 28 nmol/L. The molecular weight of the E. coli 70S ribosome was assumed to be 2.3 MDa.
E. coli 70S ribosomes and Cf-ARV-1502 were incubated with four different concentrations of unlabeled peptides chosen based on the IC50 curves of reference peptide ARV-1502. Each peptide was diluted in ribosome buffer to obtain a concentration of 4.8 µmol/L and transferred to a 384-well-plate. Peptides were then twofold serially diluted in four steps from 4.8 to 0.6 µmol/L (20 µL). The ribosome extract was diluted in ribosome buffer to reach a concentration of 2 µmol/L and 10 µL were added to each well to obtain a final ribosome concentration of 0.5 µmol/L. Plates were centrifuged (2 min, 500× g, Rotor S2096, Allegra^TM 21R, Beckmann Coulter) and incubated at 28 °C for 90 min. Cf-labeled ARV-1502 was added (10 µL; final concentration of 20 nmol/L) and the plates were again centrifuged and incubated (28 °C, 90 min). After incubation, fluorescence polarization was recorded on a […]^TM microplate reader (λex = 485 nm, λem = 535 nm).
On each plate 12 minimum (30 µL ribosome buffer and 10 µL Cf-ARV-1502) and 12 maximum (20 µL ribosome buffer, 10 µL ribosome solution and 10 µL Cf-ARV-1502) control samples were added. Fluorescence polarization of screening samples was normalized to the fluorescence polarization of these control samples. All screening samples were measured in triplicates and the whole experiment was repeated once on another day.

[3] = system: E. coli 70S ribosome; assay: Cell-free GFP expression assay (in vitro translation); format: biochemical; details: for In Vitro Translation (%): GFP expression remaining relative to control, concentration not given (higher concentration 50 µmol/L); for Reduction of GFP expression, 50 µmol/L peptide: cell-free expression, peptide-to-ribosome ratio of 25, GFP fluorescence, 37 °C
Description: Possible effects of ARV-1502 and its substituted analogs on the in vitro translation of the green fluorescent protein (GFP) were probed using the NEB PureExpress Delta RF123 Kit (New England Biolabs, Ipswich, MA, USA). The sfGFP DNA template was amplified from pY71sfGFP plasmid by PCR introducing an UAA stop codon. Release factor 1 (RF1) was 50fold diluted in Pure System Buffer (PSB) containing magnesium acetate (1 mol/L), monopotassium phosphate (0.5 mol/L, pH 7.3), potassium glutamate (1 mol/L), NH4Cl (1 mol/L), calcium chloride (0.5 mol/L), spermidine (1 mol/L), putrescine (0.1 mol/L), and DTT (0.1 mol/L). Each reaction used 35 ng of sfGFP template. Peptides were added at a final concentration of 5 µmol/L and 50 µmol/L. The reaction was started by adding Kit solutions A (2 µL) and B (1.5 µL), diluted RF1 (0.5 µL), sfGFP template (0.25 µL or water as negative control), PSB (0.25 µL), and peptide (0.5 µL or water), mixed, transferred into a black 384-well plate (flat bottom, Greiner Bio-One GmbH), and incubated (37 °C, 2 h). The fluorescence was recorded every 10 min (λexc = 485 nm, λem = 535 nm) in a microplate reader (Gemini EM, Molecular Devices LLC, San Jose, CA, USA).

[4] = system: E. coli BW25113 ∆sbmA ∆mdtM; format: cell-based, Escherichia coli; details: ∆sbmA ∆mdtM compared with ∆sbmA
Protocol: as §1

Compound	MIC / activity against E. coli ([1]; medium not given)	Inhibition of Cf-ARV-1502 binding to the 70S ribosome (in words) ([2]; Figure 3: peptide concentration 1.2 µmol/L)	MIC (µg/mL), Table 3 [1] [µg/mL]	Minimal Inhibitory Concentration, 25% MHB2, wt [1] [µg/mL]	Minimal Inhibitory Concentration, 33% TSB, wt [1] [µg/mL]	Ribosome Binding (%) [2] [%]	In Vitro Translation (%) [3] [%]	Reduction of GFP expression, 50 µmol/L peptide [3]	Effect of the additional mdtM knockout on antibacterial activity [4]
6: Chex-RPDDPRPYLPRPRPPRPVR-NH2 ([Ac6c]RPDDPRPYLPRPRPPRPVR-NH2; N-terminus assumed; SMILES CC(C)C[C@H](NC(=O)[C@H](Cc1ccc(O)cc1)NC(=O)[C@@H]1CCCN1C(=O)[C@H](CCCNC(=N)N)NC(=O)[C@@H]1CCCN1C(=O)[C@H](CC(=O)O)NC(=O)[C@H](CC(=O)O)NC(=O)[C@@H]1CCCN1C(=O)[C@H](CCCNC(=N)N)NC(=O)C1(N)CCCCC1)C(=O)N1CCC[C@H]1C(=O)N[C@@H](CCCNC(=N)N)C(=O)N1CCC[C@H]1C(=O)N[C@@H](CCCNC(=N)N)C(=O)N1CCC[C@H]1C(=O)N1CCC[C@H]1C(=O)N[C@@H](CCCNC(=N)N)C(=O)N1CCC[C@H]1C(=O)N[C@H](C(=O)N[C@@H](CCCNC(=N)N)C(N)=O)C(C)C) [Peptide 6]	low activity against E. coli	inhibited Cf-ARV-1502							
CC(C)C[C@H](NC(=O)[C@H](Cc1ccc(O)cc1)NC(=O)[C@@H]1CCCN1C(=O)[C@H](CCCNC(=N)N)NC(=O)[C@@H]1CCCN1C(=O)[C@H](CO)NC(=O)[C@H](CCCCN)NC(=O)[C@@H]1CCCN1C(=O)[C@H](CCCNC(=N)N)NC(=O)C1(N)CCCCC1)C(=O)N1CCC[C@H]1C(=O)N[C@@H](CCCNC(=N)N)C(=O)N1CCC[C@H]1C(=O)N[C@@H](CCCNC(=N)N)C(=O)N1CCC[C@H]1C(=O)N1CCC[C@H]1C(=O)N[C@@H](CCCNC(=N)N)C(=O)N1CCC[C@H]1C(=O)N[C@H](C(=O)N[C@@H](CCCNC(=N)N)C(N)=O)C(C)C [Peptide 29] (H-[Ac6c]RPKSPRPYLPRPRPPRPVR-NH2; N-terminus and C-terminus assumed)			16 (≈ 6.54 µM)	16	32	78.5 ± 3.3	74.3 ± 10.1	~ 25%	no effect
CC(C)[C@H](NC(=O)[C@@H]1CCCN1C(=O)[C@H](CCCNC(=N)N)NC(=O)[C@@H]1CCCN1C(=O)[C@@H]1CCCN1C(=O)[C@H](CCCNC(=N)N)NC(=O)[C@@H]1CCCN1C(=O)[C@H](CCCNC(=N)N)NC(=O)[C@@H]1CCCN1C(=O)[C@H](CCCCN)NC(=O)[C@H](Cc1ccc(O)cc1)NC(=O)[C@@H]1CCCN1C(=O)[C@H](CCCNC(=N)N)NC(=O)[C@@H]1CCCN1C(=O)[C@H](CCCCN)NC(=O)[C@H](CCCCN)NC(=O)[C@@H]1CCCN1C(=O)[C@H](CCCNC(=N)N)NC(=O)C1(N)CCCCC1)C(=O)N[C@@H](CCCNC(=N)N)C(N)=O [Peptide 37] (H-[Ac6c]RPKKPRPYKPRPRPPRPVR-NH2; N-terminus and C-terminus assumed)			16 (≈ 6.39 µM)	16	64	56.7 ± 2.6	63.4 ± 13.3	~ 40%	
